The values that follow come from PMC5399792 (Nucleic Acids Research, 2017).

Structures are written as SMILES. Several values for one entry are separate records, joined by “and”; a condition that tells them apart may be missing. Equal entries are not always repeated. Where two headings read alike, the source gives them in different places.

The assay has as its target influenza B polymerase bound to a c/v hybrid promoter (Influenza B virus, UniProt Q5V8Y6). As to the kind of experiment: biochemical. Details: species or system influenza B/Memphis/13/03.
Setting [1] is: 0.025 mM NTPs, capped RNA primed, T ∼ 21°C, t = 10 min, read-out: IC50 (mM), c/v hybrid promoter.
Setting [2] is: 0.25 mM NTPs, capped RNA primed, T ∼ 21°C, t = 5 min, read-out: IC50 (mM), c/v hybrid promoter.

In the case of `Nc1nc2c(ncn2[C@@H]2O[C@H](COP(=O)(O)OP(=O)(O)OP(=O)(O)O)[C@@H](O)[C@H]2F)c(=O)[nH]1` [2'F-2'dGTP], the IC50 reads like this: under setting [1], 0.04 mM; under setting [2], 0.34 mM. In the case of `Nc1ccn([C@@H]2O[C@H](COP(=O)(O)OP(=O)(O)OP(=O)(O)O)[C@@H](O)[C@H]2F)c(=O)n1` [2'F-2'dCTP], where the note is “IC50 (mM), c/v hybrid promoter”, the IC50 is 0.45 mM and 1.9 mM. For the compound `Nc1ncnc2c1ncn2[C@@H]1O[C@H](COP(=O)(O)OP(=O)(O)OP(=O)(O)O)[C@@H](O)[C@H]1F` [2'F-2'dATP], the IC50 worked out at 0.04 mM under setting [1] and 0.33 mM under setting [2].
